Data taken from paper PMC7179302, “Lead Optimization of Dehydroemetine for Repositioned Use in Malaria” (Antimicrobial Agents and Chemotherapy, 2020).
Structures can show the parent of a compound that is named as a salt.

Assays:
P. falciparum strain Dd2 = assay: microbe, parasite or virus in culture; format: cell-based; details: Plasmodium falciparum, DD2, read-out: IC50 (μM) Dd2
Experimental: (§1) The cross-resistance assay used relies on the parasites’ incorporation of labeled 3H-hypoxanthine, which is proportional to P. falciparum growth. In vitro cross-resistance of the compounds is measured as the ratio between the IC50 for the tested P. falciparum strain and the IC50 for strain 3D7A. Every replicate from a multidrug-resistant (MDR) strain involved a simultaneous determination using a 3D7A replicate to avoid any artifact linked to experimental conditions.
(§2) The three strains used for the cross-resistance assay were 3D7A, Dd2, and W2, based on their resistance profiles; the assay was carried out by GSK, Tres Cantos. Strain 3D7A is chloroquine sensitive, strain Dd2 is resistant to chloroquine, mefloquine, and pyrimethamine ([57]), and strain W2 is resistant to chloroquine, quinine, pyrimethamine, cycloguanil, and sulfadoxine (from the Malaria Research and Reference Reagent Resource Center [MR4]) ([58]). A culture of red blood cells (RBCs) parasitized by the corresponding strain (0.5% parasitemia, 2% hematocrit) in RPMI 1640, […], and 5 μM hypoxanthine was exposed to 9 dilutions (3-fold serial dilutions) of the compound starting at 5 μM. One hundred microliters of culture volume was plated in 96-well flat-bottom microtiter plates with 0.5 μl drug (200× stock in DMSO). Plates were incubated for 24 h at 37°C, 5% CO2, 5% O2, 90% N2. Next, 3H-hypoxanthine was added and plates were incubated for another 24-h period. After that, parasites were harvested on a glass fiber filter using a TomTec cell harvester 96. Filters were dried, and melt-on scintillator sheets were used to determine the incorporation of 3H-hypoxanthine. Radioactivity was measured using a MicroBeta counter. […] IC50 values were determined using the Grafit 7 program ([41]).

P. falciparum strain W2 = assay: microbe, parasite or virus in culture; format: cell-based; details: Plasmodium falciparum, W2, read-out: IC50 (μM) W2
Experimental: as §1, §2

[1] = system: mitochondrial membrane potential of P. falciparum strain K1 trophozoites; assay: Rhodamine 123 staining for mitochondrial membrane potential, flow cytometry; format: cell-based, Plasmodium falciparum; details: deviation from infected blood without drugs
Experimental: Changes in mitochondrial membrane potential were measured using rhodamine 123 (excitation wavelength, 511 nm; emission wavelength, 534 nm), a membrane-permeating cationic fluorescent dye ([49]), which accumulates by electrostatic attraction in the mitochondria because of its negative transmembrane potential. A change in the dye’s concentration in the mitochondria is caused by a depolarization event and can be visualized as a shift in the fluorescence intensity of rhodamine 123 ([50]). Draq5 (excitation wavelength, 647 nm; emission wavelength, >665 nm) is a far-red fluorescent DNA dye which is cell permeating and was used to distinguish the parasites in flow cytometry in the allophycocyanin (APC)-Cy7-A channel. SYBR green was not preferred for this experiment as it emits in the same channel as rhodamine 123 and would result in the overlap of emission signals. Fluorescence microscopy was used to visualize the localization of rhodamine 123 within the cytoplasm of the parasites (Fig. 9).
A decrease in fluorescence intensity measured in the fluorescein isothiocyanate (FITC)-A channel indicates a loss of mitochondrial membrane potential. Atovaquone, a known mitochondrial inhibitor, was used as a control.
Compounds were then washed away by centrifuging the cultures, and a pellet was prepared for each drug concentration. Pellets were then incubated with 1 ml of 200 nM rhodamine 123 for 1 h, followed by a further incubation with 100 μl of 5 μM Draq5 for 20 min. After a wash with PBS, the experiment was read with a flow cytometer on the FITC channel. Loss of mitochondrial membrane potential was indicated by a decrease in fluorescence intensity.

SMILES: CCC1=C(C[C@H]2NCCc3cc(OC)c(OC)cc32)C[C@H]2c3cc(OC)c(OC)cc3CCN2C1 [(−)-R,S-dehydroemetine, (S)-2-((R)-6,7-dimethoxy-1,2,3,4-tetrahydro-isoquinolin-1-ylmethyl)-3-ethyl-9,10-dimethoxy-1,6,7,11b-tetrahydro-4H-pyrido[2,1-a]isoquinoline * dihydrobromide]
- IC50 (P. falciparum strain Dd2): 0.177 µM
- IC50 (P. falciparum strain W2): 0.168 µM
- Change in fluorescence intensity (FITC-A mean) of rhodamine 123 ([1]; at 10× IC50, 2 h): 32.98%
- Change in fluorescence intensity (FITC-A mean) of rhodamine 123 ([1]; at IC50, 2 h): 26.76%
